Data taken from US20240308995A1, “O-GLYCOPROTEIN-2-ACETAMIDO-2-DEOXY-3-D-GLUCOPYRANOSIDASE INHIBITORS” (BIOGEN MA INC., priority 2018, published 2024).
Where two headings read alike, the source gives them in different places.

Columns and labels:
[1] = molecular target: Recombinant full length human OGA enzyme (Homo sapiens (Human), UniProt O60502); assay: OGA Enzyme Inhibition Biochemical Assay; settings: 1 nM OGA, 100 μM 4-MUGlcNAc, pH 6.4
Method in brief: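 Full-length recombinant human OGA with fluorogenic 4-MUGlcNAc in McIlvaine buffer pH 6.4, 0.01% BSA; 90 min at room temperature, glycine pH 10 quench, fluorescence Ex 355/Em 460 nm. 10-point, 4-fold dilution from 20 μM; 4-parameter variable-slope fit.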

[2] = molecular target: OGA (S400 O-GLCNAC), HEK-293T cells transfected with Tau-V5 (Homo sapiens (Human), UniProt O60502); assay: Cellular OGA-Tau MSD Assay; type: cell-based; settings: HEK-293T cells, Tau-S400-GlcNAc MSD readout
Chain of OGA (S400 O-GLCNAC), HEK-293T cells transfected with Tau-V5 (O60502 whole entry): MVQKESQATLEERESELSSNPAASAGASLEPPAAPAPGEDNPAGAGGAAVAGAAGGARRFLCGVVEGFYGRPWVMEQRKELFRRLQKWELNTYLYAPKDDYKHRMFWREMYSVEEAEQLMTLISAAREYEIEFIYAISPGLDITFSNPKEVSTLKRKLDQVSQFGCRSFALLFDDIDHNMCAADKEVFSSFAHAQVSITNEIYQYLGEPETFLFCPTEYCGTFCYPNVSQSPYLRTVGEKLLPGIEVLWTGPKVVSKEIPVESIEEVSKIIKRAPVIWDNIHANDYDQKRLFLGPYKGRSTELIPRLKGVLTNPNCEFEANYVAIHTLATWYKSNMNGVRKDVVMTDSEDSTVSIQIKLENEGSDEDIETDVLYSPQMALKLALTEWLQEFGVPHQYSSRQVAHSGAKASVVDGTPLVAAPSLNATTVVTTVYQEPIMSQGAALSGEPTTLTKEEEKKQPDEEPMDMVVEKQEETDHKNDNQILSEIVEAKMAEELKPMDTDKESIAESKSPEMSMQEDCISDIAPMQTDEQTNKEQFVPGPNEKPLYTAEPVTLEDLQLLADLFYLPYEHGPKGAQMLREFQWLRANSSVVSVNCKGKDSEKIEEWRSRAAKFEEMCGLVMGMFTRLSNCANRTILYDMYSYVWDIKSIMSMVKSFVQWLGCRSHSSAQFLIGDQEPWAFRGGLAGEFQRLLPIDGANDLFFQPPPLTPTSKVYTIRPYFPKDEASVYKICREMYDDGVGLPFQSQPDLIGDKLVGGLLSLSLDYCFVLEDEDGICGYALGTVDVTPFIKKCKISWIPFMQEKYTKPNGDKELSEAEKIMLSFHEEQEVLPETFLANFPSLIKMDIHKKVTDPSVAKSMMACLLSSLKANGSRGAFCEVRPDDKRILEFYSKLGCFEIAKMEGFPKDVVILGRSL
Method in brief: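 HEK-293T cells transfected with OGA and Tau-V5 plasmids were treated overnight at 37° C with a 10-point, 3-fold titration from 1 uM. Lysates went onto V5-antibody MSD plates to capture Tau, probed with a Tau O-GlcNAc antibody and read by electrochemiluminescence; IC50 from a 4-parameter fit.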

[3] = tested on: P-gp (MDR1); assay: MDR1-MDCK Efflux Ratio Assay; type: in vitro ADME; settings: dog, read-out: MDR1-MDCK Efflux Ratio (B-A/A-B)
Method in brief: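 Bidirectional (apical↔basolateral) transport across confluent MDR1-MDCK monolayers in HBSS/10 mM HEPES pH 7.4, receiver buffer with 1% BSA; 2 hr at 37° C, 5% CO2. Donor sampled at 0 and 120 min, receiver at 120 min, quantified by LC-MS/MS in triplicate. Papp, efflux ratio and percent recovery calculated.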

[4] = Rat Liver Microsome Stability Assay; type: in vitro ADME; settings: rat liver microsomes, 1 uM compound
[5] = MDCK-MDR1, pH 7.4, MDR1-MDCK cells, 2 hr, pH 7.4
[6] = MDCK-MDR1, pH 7.4, repeated assay, value marked with asterisk (*)

Chain of Recombinant full length human OGA enzyme (O60502 whole entry): as above

Question: Which IC50 [1] does the source give for CC(=O)Nc1nc(F)c(CN2C[C@H](Oc3ccnc(F)c3)C[C@@H]2C)s1 [Example 1-97, N-(4-fluoro-5-(((2S,4R)-4-((2-fluoropyridin-4-yl)oxy)-2-methylpyrrolidin-1-yl)methyl)thiazol-2-yl)acetamide] here?
Answer: < 1 nM

Question: And the IC50 [2]?
Answer: 3 nM

Question: And the efflux ratio at 2 h [3, 5]?
Answer: 3.7

Question: And the “RLM % Qh (%)” value [4]?
Answer: 52%

Question: For CC(=O)Nc1nc(F)c(CN2C[C@H](Oc3ccc(Cl)cn3)C[C@@H]2C)s1 [Example 1-90, N-(5-(((2S,4R)-4-((5-chloropyridin-2-yl)oxy)-2-methylpyrrolidin-1-yl)methyl)-4-fluorothiazol-2-yl)acetamide], which IC50 [1] is on record?
Answer: < 1 nM

Question: And the IC50 [2]?
Answer: < 1 nM

Question: What about the efflux ratio at 2 h [3, 5] of the same compound?
Answer: 1.1

Question: And the “RLM % Qh (%)” value [4]?
Answer: 88%

Question: What does the source list for CC(=O)Nc1nc(F)c(CN2C[C@H](Oc3ccnc(C)c3)C[C@@H]2C)s1 [Example 1-110, N-(4-fluoro-5-(((2S,4R)-2-methyl-4-((2-methylpyridin-4-yl)oxy)pyrrolidin-1-yl)methyl)thiazol-2-yl)acetamide]?
Answer: IC50 [1]: < 1 nM; IC50 [2]: 1 nM; efflux ratio at 2 h [3, 5]: 34.4; RLM % Qh (%) [4]: 39%

Question: Which IC50 [1] does the source give for CC(=O)Nc1ncc(CN2C[C@H](Oc3ccccn3)C[C@@H]2C)s1 [Example 1-14, N-(5-(((2S,4R)-2-methyl-4-(pyridin-2-yloxy)pyrrolidin-1-yl)methyl)thiazol-2-yl)acetamide] here?
Answer: 1.3 nM

Question: What about the IC50 [2] of the same compound?
Answer: 5 nM

Question: What about the efflux ratio at 2 h [3, 5] of the same compound?
Answer: 2.9

Question: And the “RLM % Qh (%)” value [4]?
Answer: 68%

Question: What does the source list for CC(=O)Nc1ncc(CN2C[C@H](Oc3ccc(F)nn3)C[C@@H]2C)s1 [Example 1-83, N-(5-(((2S,4R)-4-((6-fluoropyridazin-3-yl)oxy)-2-methylpyrrolidin-1-yl)methyl)thiazol-2-yl)acetamide]?
Answer: IC50 [1]: < 1 nM; IC50 [2]: 1 nM; efflux ratio at 2 h [3, 5]: 38.6; RLM % Qh (%) [4]: 16%

Question: For CC(=O)Nc1ncc(CN2C[C@H](Oc3ccc(F)cn3)C[C@H]2C)s1 [Example 1-10, N-(5-(((2R,4R)-4-((5-fluoropyridin-2-yl)oxy)-2-methylpyrrolidin-1-yl)methyl)thiazol-2-yl)acetamide], which IC50 [1] is on record?
Answer: 28 nM

Question: What about the IC50 [2] of the same compound?
Answer: 115 nM

Question: And the efflux ratio at 2 h [3, 5]?
Answer: 1.9

Question: What about the “RLM % Qh (%)” value [4] of the same compound?
Answer: 76%

Question: Which IC50 [1] does the source give for CC(=O)Nc1ncc(CN2C[C@H](Oc3cc(N4CCC4)ncn3)C[C@@H]2C)s1 [Example 1-133, N-(5-(((2S,4R)-4-((6-(azetidin-1-yl)pyrimidin-4-yl)oxy)-2-methylpyrrolidin-1-yl)methyl)thiazol-2-yl)acetamide] here?
Answer: < 1 nM

Question: And the IC50 [2]?
Answer: 1 nM

Question: And the efflux ratio at 2 h [3, 5]?
Answer: 23.6

Question: And the “RLM % Qh (%)” value [4]?
Answer: 43%

Question: With COc1cc(O[C@@H]2C[C@H](C)N(Cc3sc(NC(C)=O)nc3Cl)C2)ncn1 [Example 1-46, N-(4-chloro-5-(((2S,4R)-4-((6-methoxypyrimidin-4-yl)oxy)-2-methylpyrrolidin-1-yl)methyl)thiazol-2-yl)acetamide] as the compound, how does the IC50 [1] read?
Answer: 1 nM

Question: And the IC50 [2]?
Answer: 38 nM

Question: What about the efflux ratio at 2 h [3, 5] of the same compound?
Answer: 3.2

Question: And the “RLM % Qh (%)” value [4]?
Answer: 55%

Question: Which IC50 [1] does the source give for CC(=O)Nc1ncc(CN2CCC[C@H](Oc3cc(C)nc(C)c3)C2)s1 [Example 1-64, (S)—N-(5-((3-((2,6-dimethylpyridin-4-yl)oxy)piperidin-1-yl)methyl)thiazol-2-yl)acetamide] here?
Answer: 23 nM

Question: What about the IC50 [2] of the same compound?
Answer: 31 nM

Question: And the efflux ratio at 2 h [3, 5]?
Answer: 35.3

Question: And the “RLM % Qh (%)” value [4]?
Answer: 67%

Question: Which IC50 [1] does the source give for COc1cc(O[C@@H]2CCCN(Cc3cnc(NC(C)=O)s3)C2)ncn1 [Example 1-42, (R)—N-(5-((3-((6-methoxypyrimidin-4-yl)oxy)piperidin-1-yl)methyl)thiazol-2-yl)acetamide] here?
Answer: 39 nM

Question: And the IC50 [2]?
Answer: 81 nM

Question: What about the efflux ratio at 2 h [3, 5] of the same compound?
Answer: 3.9

Question: What about the “RLM % Qh (%)” value [4] of the same compound?
Answer: 61%

Question: Which IC50 [1] does the source give for CC(=O)Nc1nc(F)c(CN2C[C@H](Oc3cc(O)ncn3)C[C@@H]2C)s1 [Example 1-109, N-(4-fluoro-5-(((2S,4R)-4-((6-hydroxypyrimidin-4-yl)oxy)-2-methylpyrrolidin-1-yl)methyl)thiazol-2-yl)acetamide] here?
Answer: < 1 nM

Question: What about the IC50 [2] of the same compound?
Answer: 8 nM

Question: What about the efflux ratio at 2 h [3, 5] of the same compound?
Answer: 12.7

Question: And the “RLM % Qh (%)” value [4]?
Answer: 16%

Question: What does the source list for CC(=O)Nc1nc(F)c(CN2C[C@H](Oc3cc(F)c(F)cn3)C[C@@H]2C)s1 [Example 1-102, N-(5-(((2S,4R)-4-((4,5-difluoropyridin-2-yl)oxy)-2-methylpyrrolidin-1-yl)methyl)-4-fluorothiazol-2-yl)acetamide]?
Answer: IC50 [1]: < 1 nM; IC50 [2]: 2 nM; efflux ratio at 2 h [3, 5]: 1.2; RLM % Qh (%) [4]: 82%

Question: For CC(=O)Nc1ncc(CN2C[C@H](Oc3ncc(OC(F)F)cn3)C[C@@H]2C)s1 [Example 1-80, N-(5-(((2S,4R)-4-((5-(difluoromethoxy)pyrimidin-2-yl)oxy)-2-methylpyrrolidin-1-yl)methyl)thiazol-2-yl)acetamide], which IC50 [1] is on record?
Answer: 1.2 nM

Question: And the IC50 [2]?
Answer: < 1 nM

Question: And the efflux ratio at 2 h [3, 5]?
Answer: 18.1

Question: And the “RLM % Qh (%)” value [4]?
Answer: 65%

Question: Which IC50 [1] does the source give for CC(=O)Nc1ncc(CN2C[C@H](Oc3cnc(Cl)cc3C)C[C@@H]2C)s1 [Example 1-17, N-(5-(((2S,4R)-4-((6-chloro-4-methylpyridin-3-yl)oxy)-2-methylpyrrolidin-1-yl)methyl)thiazol-2-yl)acetamide] here?
Answer: < 1 nM

Question: What about the IC50 [2] of the same compound?
Answer: 2 nM

Question: What about the efflux ratio at 2 h [3, 5] of the same compound?
Answer: 12

Question: And the efflux ratio at 2 h [3, 6]?
Answer: 12.4

Question: What about the “RLM % Qh (%)” value [4] of the same compound?
Answer: 88%

Question: For COc1ccnc(O[C@@H]2C[C@H](C)N(Cc3sc(NC(C)=O)nc3F)C2)n1 [Example 1-91, N-(4-fluoro-5-(((2S,4R)-4-((4-methoxypyrimidin-2-yl)oxy)-2-methylpyrrolidin-1-yl)methyl)thiazol-2-yl)acetamide], which IC50 [1] is on record?
Answer: < 1 nM

Question: And the IC50 [2]?
Answer: < 1 nM

Question: What about the efflux ratio at 2 h [3, 5] of the same compound?
Answer: 9.9

Question: What about the “RLM % Qh (%)” value [4] of the same compound?
Answer: 81%

Question: For CC(=O)Nc1ncc(CN2C[C@H](Oc3ccc(F)cn3)C[C@@H]2C)s1 [Example 1-11, N-(5-(((2S,4R)-4-((5-fluoropyridin-2-yl)oxy)-2-methylpyrrolidin-1-yl)methyl)thiazol-2-yl)acetamide], which IC50 [1] is on record?
Answer: < 1 nM

Question: And the IC50 [2]?
Answer: 3 nM

Question: And the efflux ratio at 2 h [3, 5]?
Answer: 1.1

Question: And the efflux ratio at 2 h [3, 6]?
Answer: 1.9

Question: What about the “RLM % Qh (%)” value [4] of the same compound?
Answer: 73%

Question: For CC(=O)Nc1ncc(CN2C[C@@H](Oc3ccc(C)nc3)C[C@H]2C)s1 (stereo in doubt) [Example 1-116, N-(5-(((2R,4S)-2-methyl-4-((6-methylpyridin-3-yl)oxy)pyrrolidin-1-yl)methyl)thiazol-2-yl)acetamide], which IC50 [1] is on record?
Answer: < 1 nM

Question: What about the IC50 [2] of the same compound?
Answer: 1 nM

Question: And the efflux ratio at 2 h [3, 5]?
Answer: 19.6

Question: What about the “RLM % Qh (%)” value [4] of the same compound?
Answer: 55%

Question: For CC(=O)Nc1ncc(CN2C[C@H](Oc3ccnc(C)c3)C[C@@H]2C)s1 [Example 1-82, N-(5-(((2S,4R)-2-methyl-4-((2-methylpyridin-4-yl)oxy)pyrrolidin-1-yl)methyl)thiazol-2-yl)acetamide], which IC50 [1] is on record?
Answer: < 1 nM

Question: And the IC50 [2]?
Answer: 2 nM

Question: And the efflux ratio at 2 h [3, 5]?
Answer: 16.7

Question: And the “RLM % Qh (%)” value [4]?
Answer: 38%

Question: Which results are given for [2H][C@@]1(Oc2cc(OC)ncn2)C[C@H](C)N(Cc2cnc(NC(C)=O)s2)C1 (single isomer, unassigned) [Example 1-163]?
Answer: IC50 [1]: < 1 nM; IC50 [2]: 4 nM; efflux ratio at 2 h [3, 5]: 5.9; RLM % Qh (%) [4]: 30%

Question: What does the source list for COc1ccc(O[C@@H]2C[C@H](C)N(Cc3cnc(NC(C)=O)s3)C2)nn1 [Example 1-68, N-(5-(((2S,4R)-4-((6-methoxypyridazin-3-yl)oxy)-2-methylpyrrolidin-1-yl)methyl)thiazol-2-yl)acetamide]?
Answer: IC50 [1]: < 1 nM; IC50 [2]: 2 nM; efflux ratio at 2 h [3, 5]: 28.6; RLM % Qh (%) [4]: 34%

Question: With COc1cc(O[C@H]2CCCN(Cc3cnc(NC(C)=O)s3)C2)ncn1 [Example 1-41, (S)—N-(5-((3-((6-methoxypyrimidin-4-yl)oxy)piperidin-1-yl)methyl)thiazol-2-yl)acetamide] as the compound, how does the IC50 [1] read?
Answer: 24 nM

Question: And the IC50 [2]?
Answer: 29 nM

Question: What about the efflux ratio at 2 h [3, 5] of the same compound?
Answer: 4.3

Question: What about the “RLM % Qh (%)” value [4] of the same compound?
Answer: 80%

Question: For CC(=O)Nc1ncc(CN2C[C@H](Oc3ccnc(C)n3)C[C@@H]2C)s1 [Example 1-104, N-(5-(((2S,4R)-2-methyl-4-((2-methylpyrimidin-4-yl)oxy)pyrrolidin-1-yl)methyl)thiazol-2-yl)acetamide], which IC50 [1] is on record?
Answer: < 1 nM

Question: What about the IC50 [2] of the same compound?
Answer: 2 nM

Question: And the efflux ratio at 2 h [3, 5]?
Answer: 16

Question: And the “RLM % Qh (%)” value [4]?
Answer: 30%

Question: With CC(=O)Nc1nc(F)c(CN2C[C@H](Oc3cnc(C(F)F)cn3)C[C@@H]2C)s1 [Example 1-113, N-(5-(((2S,4R)-4-((5-(difluoromethyl)pyrazin-2-yl)oxy)-2-methylpyrrolidin-1-yl)methyl)-4-fluorothiazol-2-yl)acetamide] as the compound, how does the IC50 [1] read?
Answer: 2.1 nM

Question: And the IC50 [2]?
Answer: 5 nM

Question: What about the efflux ratio at 2 h [3, 5] of the same compound?
Answer: 2.1

Question: And the “RLM % Qh (%)” value [4]?
Answer: 61%

Question: Which IC50 [1] does the source give for COc1cnc(O[C@@H]2C[C@H](C)N(Cc3cnc(NC(C)=O)s3)C2)cn1 [Example 1-73, N-(5-(((2S,4R)-4-((5-methoxypyrazin-2-yl)oxy)-2-methylpyrrolidin-1-yl)methyl)thiazol-2-yl)acetamide] here?
Answer: < 1 nM

Question: And the IC50 [2]?
Answer: 3 nM

Question: And the efflux ratio at 2 h [3, 5]?
Answer: 2.9

Question: And the “RLM % Qh (%)” value [4]?
Answer: 57%
